Data reported in patent publication US20030207886A1, “Preparation containing quinoxaline derivatives” (priority 2000, published 2003).

Test: Maxima of UV-A and UV-B absorption of quinoxaline derivatives in 2-propanol
Assay type: physicochemical
Details: 1 mg of substance per 100 ml of solvent; for UV-A (400 320 nm) Max. abs.: absorbance at UV-A maximum; for UV-B (280 320 nm) Max. abs.: absorbance at UV-B maximum; for UV-A (400 320 nm) λ [nm]: wavelength of UV-A maximum; for UV-B (280 320 nm) λ [nm]: wavelength of UV-B maximum
Procedure: The measurement was carried out in 2-propanol at a concentration of 1 mg of substance per 100 ml of solvent.

| Compound | UV-A (400 320 nm) Max. abs. | UV-B (280 320 nm) Max. abs. | UV-A (400 320 nm) λ [nm] | UV-B (280 320 nm) λ [nm] |
| --- | --- | --- | --- | --- |
| CCOC(=O)c1nc2ccccc2[nH]c1=O | 0.245 | 0.279 | 355.8 nm | 290.0 |
| Fc1nc2ccccc2nc1N(c1ncccn1)c1nc2ccccc2nc1F | 0.446 |  | 329.8 nm |  |
| CC(=O)c1nc2ccccc2nc1C(C)=O |  | 0.3011 |  | 310.0 |
| COC(=O)CCc1ccc2nc3nc4ccccc4nc3n2c1 | 0.3747 |  | 349.5 nm |  |
| CC(C)c1ccc(/C=C/C(=O)c2cnc3ccccc3n2)cc1 | 0.7731 |  | 343.0 nm |  |
| c1ccc2nc3c(nc2c1)nc1ccccn13 | 0.411 |  | 348.3 nm |  |
| COc1cc(Nc2nc3ccccc3nc2-c2ccccc2)c(C(=O)O)cc1OC | 0.235 | 0.635 | 393.4 nm | 285.6 |
| CCOC(=O)c1nc2ccccc2nc1Nc1cc(OC)c(OC)c(OC)c1 |  | 0.614 |  | 295.6 |
| CCOC(=O)c1nc2ccccc2nc1Nc1cc(OC)c(OC)cc1C(=O)O |  | 0.5713 |  | 295.0 |
| C(#Cc1nc2ccccc2nc1C#Cc1ccccc1)c1ccccc1 | 0.4443 | 0.8366 | 385.0 nm | 294.0 |
| CC(C)OC(=O)c1ccc(Nc2nc3ccccc3nc2-c2ccccc2)cc1 | 0.342 | 0.849 | 381.9 nm | 305.3 |
| Clc1nc2ccccc2nc1-c1ccccc1 | 0.173 |  | 335.0 nm |  |
| Cc1ccc(/C=C/c2nc3ccccc3[nH]c2=O)cc1 | 0.4660 |  | 336.0 nm |  |
| CCc1ccn2c(c1)nc1nc3ccccc3nc12 | 0.536 |  | 356.1 nm |  |
| Clc1nc2ccccc2nc1C#Cc1ccccc1 |  | 0.6431 |  | 286.0 |
| Fc1cc(F)c(N(c2cnc3ccccc3n2)c2cnc3ccccc3n2)c(F)c1 |  | 0.966 |  | 289.3 |
| Fc1ccc2nc3nc4ccccc4nc3n2c1 | 0.132 |  | 344.6 nm |  |
| c1ccc2nc(-c3cnc4ccccc4n3)cnc2c1 | 0.7687 |  | 341.0 nm |  |
| CC(C)(C)OC(=O)c1ccc(Nc2nc3ccccc3nc2Cl)cc1 |  | 0.4672 |  | 291.0 |
| Cc1nc2ccc(Cl)cc2nc1C | 0.400 |  | 322.0 nm |  |
| O=c1[nH]c2ccccc2nc1/C=C/c1ccccc1 | 0.7324 |  | 388.5 nm |  |
| CCOC(=O)c1nc2ccccc2nc1Cl | 0.243 |  | 322.9 nm |  |
| CC(C)c1ccc(C(=O)c2nc3ccccc3nc2C(=O)c2ccc(C(C)C)cc2)cc1 |  | 0.45 |  | 280.0 |
| COc1cc(Nc2nc3ccccc3nc2-c2ccccc2)cc(OC)c1OC | 0.175 | 0.475 | 390.4 nm | 287.6 |

Further lines, results first:

| UV-A (400 320 nm) Max. abs. | UV-B (280 320 nm) Max. abs. | UV-A (400 320 nm) λ [nm] | UV-B (280 320 nm) λ [nm] | Compound |
| --- | --- | --- | --- | --- |
| 0.378 | 1.141 | 374.1 nm | 297.2 | O=C(O)c1ccc(Nc2cnc3ccccc3n2)cc1 |
| 0.262 |  | 359.8 nm |  | FC(F)(F)c1cc(Nc2cnc3ccccc3n2)cc(C(F)(F)F)c1 |
| 0.622 | 1.062 | 374.9 nm | 314.7 | CC(=O)c1ccc(Nc2cnc3ccccc3n2)cc1 |
| 0.424 |  | 395.4 nm |  | O=C(c1ccccc1)c1ccccc1Nc1cnc2ccccc2n1 |
| 0.506 | 1.172 | 374.3 nm | 306.3 | CC(C)(C)OC(=O)c1ccc(Nc2cnc3ccccc3n2)cc1 |
|  | 0.2183 |  | 290.0 | O=C(O)c1ccc(CNc2nc3ccccc3nc2Cl)cc1 |
| 0.1187 | 0.4067 | 381.5 nm | 287.0 | CCOC(=O)c1nc2ccccc2nc1Nc1cc(F)c(F)cc1C(=O)O |
| 0.319 | 0.887 | 372.8 nm | 286.9 | O=C(O)c1cc(Nc2cnc3ccccc3n2)cc(C(=O)O)c1 |
| 0.325 | 0.452 | 376.8 nm | 303.8 | O=C(O)c1ccc(Nc2nc3ccccc3nc2-c2ccccc2)cc1 |
| 0.1595 |  | 321.0 nm |  | Cc1ccc(S(=O)(=O)c2cnc3ccccc3n2)cc1 |
| 0.248 | 0.757 | 365.2 nm | 280.7 | Clc1ccc(Nc2cnc3ccccc3n2)c(Cl)c1 |
|  | 0.5569 |  | 291.0 | CCC(CC)COC(=O)c1ccc(Nc2cnc3ccccc3n2)c(O)c1 |
| 0.322 | 0.789 | 368.3 nm | 287.7 | COC(=O)c1cc(Nc2cnc3ccccc3n2)cc(C(=O)OC)c1 |
| 0.5414 | 1.2839 | 375.0 nm | 306.0 | CCOC(=O)c1ccc(Nc2cnc3ccccc3n2)cc1 |
| 0.281 | 0.679 | 386.1 nm | 275.6 | COc1cc(Nc2cnc3ccccc3n2)cc(OC)c1OC |
| 1.2265 |  | 328.5 nm |  | CCOC(=O)c1nc2ccccc2nc1Nc1ccc(C(C)=O)cc1 |
| 0.456 | 0.455 | 380.1 nm | 300.1 | COc1cc(Nc2cnc3ccccc3n2)c(C(=O)O)cc1OC |
| 0.192 |  | 359.0 nm |  | FC(F)(F)c1cc(CNc2cnc3ccccc3n2)cc(C(F)(F)F)c1 |
| 0.2602 |  | 364.0 nm |  | c1ccc(CNc2cnc3ccccc3n2)cc1 |
| 0.3076 | 0.756 | 380.0 nm | 307.0 | CCOC(=O)CCC(NC(=O)c1ccc(Nc2cnc3ccccc3n2)cc1)C(=O)OCC (stereo not drawn) |
| 0.306 | 0.837 | 386.9− nm | 291.1 | COc1ccc(Nc2cnc3ccccc3n2)cc1 |
